Results reported in patent publication US7208517B1, “Endothelin antagonists” (Abbott Labortories, priority 1994, dated 2007).

Legend:
[1] = pH-solubility profile: maximum solubility in aqueous media at varying pH; format: physicochemical
Excerpt: Such increased aqueous solubility, coupled with the enhanced potency resulting from decreased protein binding, might make such compounds preferred for development as parenteral agents.

human ETA receptor = target: T1, human ETA receptor (Homo sapiens, UniProt P25101); test: Albumin-induced binding shift study: [125I]ET-1 binding in presence of human serum albumin; settings: 0%, 0.2%, 1% or 5% HSA
T1 construct: expressed in transfected cells; host or cells: CHO cells, permanently transfected
T1 sequence (P25101 21-427): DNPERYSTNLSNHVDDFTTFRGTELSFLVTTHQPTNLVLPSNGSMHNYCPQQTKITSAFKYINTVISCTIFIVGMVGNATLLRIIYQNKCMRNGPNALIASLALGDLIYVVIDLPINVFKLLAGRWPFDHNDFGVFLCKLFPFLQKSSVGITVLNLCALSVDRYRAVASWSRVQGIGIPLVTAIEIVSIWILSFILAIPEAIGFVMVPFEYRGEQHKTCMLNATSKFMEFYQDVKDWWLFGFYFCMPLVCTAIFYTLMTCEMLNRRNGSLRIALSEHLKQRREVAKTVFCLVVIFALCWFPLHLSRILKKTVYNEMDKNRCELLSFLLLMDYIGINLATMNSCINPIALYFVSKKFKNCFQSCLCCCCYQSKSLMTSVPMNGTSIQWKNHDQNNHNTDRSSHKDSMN
Protocol: Protocol for Albumin-induced binding shift studies: Binding assays were performed in 96-well microtiter plates precoated with 0.1% BSA unless otherwise indicated. Membranes were diluted in Buffer B (20 mM Tris, 100 mM NaCl, 10 mM MgCl2, pH 7.4, 0.1 mM PMSF, […] Pepstatin A, 0.025% bacitracin and 3 mM EDTA) to a final concentration of 0.05 mg/ml of protein. Varying concentrations of human serum albumin (HSA) were added as indicated. In competition studies, membranes were incubated with 0.1 nM of [^125I]ET in Buffer B (final volume: 0.2 ml) in the presence of increasing concentrations of unlabeled test ligands for 4 hours at 25° C. After incubation, unbound ligands were separated from bound ligands by vacuum filtration using glass-fiber filter strips in PHD cell harvesters (Cambridge Technology, Inc., Watertown, MA), followed by washing the filter strips with saline (1 ml) for three times. Nonspecific binding was determined in the presence of 1 μM ET-1. Inhibition of [^125]ET-1 binding to human ETA receptor by ETA antagonists. Each curve was determined in the presence of either 0%, 0.2%, 1%, or 5% HSA, and assays were performed as described above. The results are expressed as % of control binding, with [^125I]ET-1 binding in the absence of antagonist defining 100%. Each point represents the mean (±S.D.) of three determinations.

[2] = Determination of plasma protein binding (ultrafiltration, HPLC); format: in vitro ADME; settings: fresh plasma, 1 hour at room temperature
Protocol: A stock solution of the test compound in 50% ethanol (2 mg/mL) was diluted 10× into PBS. A 0.4 mL sample of this secondary stock solution was added to 3.6 mL of fresh plasma, and incubated at room temperature for 1 hour. A 1 mL sample of this incubation mixture was transferred to a Centrifree ultrafiltration tube. The sample was centrifuged in a fixed-bucket rotor for approximately 2 min and the filtrate was discarded. The sample was centrifuged for another 15–30 min. A 100 μL sample of the ultrafiltrate was transfered to a micro HPLC sample vial containing […] of HPLC mobile phase and mixed thoroughly. A 50 μL sample was injected and the concentration of drug in the ultrafiltrate was determined by HPLC analysis compared against a standard sample prepared identically in the absence of plasma. Ultrafiltrate concentrations are calculated from a calibration curve. Protein binding is calculated according to the equation: % PB=[1−(Cu/Ci)]*100%
where Cu is the ultrafiltrate concentration and Ci is the initial plasma concentration.

ETA Receptor = target: T2, ETA Receptor (Rattus norvegicus, UniProt P26684); test: [125I]ET-1 binding to membranes from MMQ cells (ETA receptor binding assay, Table 4); settings: test compound at 1 μM; 0.1 nM [125I]ET-1, MMQ cell membranes, 4 hours at 25° C.
T2 construct: endogenous in cells; host or cells: MMQ rat pituitary cells (membranes)
T2 sequence (P26684 21-426): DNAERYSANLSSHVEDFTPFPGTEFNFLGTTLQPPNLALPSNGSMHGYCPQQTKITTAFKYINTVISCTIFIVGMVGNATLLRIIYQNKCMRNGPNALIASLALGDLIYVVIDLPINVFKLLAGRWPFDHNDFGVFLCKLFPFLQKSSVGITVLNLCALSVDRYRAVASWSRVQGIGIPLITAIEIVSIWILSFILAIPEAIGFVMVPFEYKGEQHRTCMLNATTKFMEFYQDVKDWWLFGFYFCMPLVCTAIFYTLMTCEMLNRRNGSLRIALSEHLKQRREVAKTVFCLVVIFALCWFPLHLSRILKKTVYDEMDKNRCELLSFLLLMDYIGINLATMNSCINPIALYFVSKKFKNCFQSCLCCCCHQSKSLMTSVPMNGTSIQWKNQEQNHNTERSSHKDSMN

[3] = system: ET-1-induced phosphatidylinositol hydrolysis in MMQ cells; test: Determination of ET-1-induced phosphatidylinositol (PI) hydrolysis in MMQ cells; format: cell-based, rat; settings: 1 nM ET-1 challenge, read-out: IC50 (inhibition of ET-induced increase in PI turnover)
Protocol: MMQ cells (0.4×10^6 cells/mL) were labeled with 10 μCi/mL of [^3H]myo-inositol in RPMI for 16 hours. The cells were washed with PBS, then incubated with Buffer A containing protease inhibitors and 10 mM LiCl for 60 minutes. The cells were then incubated with test compounds for 5 minutes, and then challenged with 1 nM ET-1. ET-1 challenge was terminated by the addition of 1.5 mL of 1:2 (v/v) chloroform-methanol. Total inositol phosphates were extracted after adding chloroform and water to give final proportions of 1:1:0.9 (v/v/v) chloroform-methanol-water as described by Berridge (Biochem. J. 206 587–595 (1982)). The upper aqueous phase (1 mL) was retained and a small portion (100 μL) was counted. The rest of the aqueous sample was analyzed by batch chromatography using anion-exchange resin AG1-X8 (Bio-Rad). […] The results of the above study clearly indicate that the compounds act as functional ET antagonists.

[4] = system: post-ischaemic renal vasoconstriction; settings: rats; cited from earlier work
MAP = settings: sodium-depleted squirrel monkeys; dosed orally; cited from earlier work
[5] = system: decrease in cerebral blood flow due to subarachnoid hemorrhage (SAH); settings: rats; cited from earlier work

| maximum solubility ([1]; pH 5.1, about 25° C.) [µg/mL] | maximum solubility ([1]; pH 6.5, about 25° C.) [µg/mL] | maximum solubility ([1]; pH 7.1, about 25° C.) [µg/mL] | maximum solubility ([1]; pH 7.6, about 25° C.) [µg/mL] | percent of bound compound (plasma protein binding, % PB) [2] [%] | percent of bound compound (plasma protein binding, % PB) ([2]; listed as Example #43) [%] | % Inhibition of ETA at 1 μM (ETA Receptor) [%] | IC50 [3] [nM] | SMILES | shift of the binding curve in the presence of increasing albumin levels (human ETA receptor) | post-ischaemic renal vasoconstriction [4] | MAP (MAP) | decrease in cerebral blood flow due to subarachnoid hemorrhage (SAH) [5] |
| --- | --- | --- | --- | --- | --- | --- | --- | --- | --- | --- | --- | --- |
| 80 | 510 | 990 | 1140 | > 98 | >99.5 | 99.2 | 0.1 | CCCCN(CCCC)C(=O)CN1C[C@H](c2ccc3c(c2)OCO3)[C@@H](C(=O)O)[C@@H]1c1ccc(OC)cc1 (relative stereo) [Example 43, trans,trans-2-(4-Methoxyphenyl)-4-(1,3-benzodioxol-5-yl)-1-(N,N-di(n-butyl)aminocarbonylmethyl)-pyrrolidine-3-carboxylic acid] | rightward shift of the binding curve (toward decreasing potency) | – | – | – |
| – | – | – | – | – | – | – | – | COc1cccc(Oc2c(NS(=O)(=O)c3ccc(C(C)(C)C)cc3)ncnc2OCCO)c1 [Ro 46–2005] | – | prevents post-ischaemic renal vasoconstriction | decreases MAP | prevents the decrease in cerebral blood flow due to subarachnoid hemorrhage (SAH) |
